Assay results from PubChem BioAssay (NCI).
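Five concentrations, 48 hours, 96-well plates. The concentration for full growth arrest is given as TGI.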

Tests used:
Assay in all cases: NCI tumour cell line growth inhibition, 48 h
LXFL 529 NSCLC = tested on: LXFL 529 NSCLC
XF 498 CNS = tested on: XF 498 CNS
DLD-1 colon = tested on: DLD-1 colon
DMS 273 small cell lung = tested on: DMS 273 small cell lung
HOP-18 NSCLC = tested on: HOP-18 NSCLC
P388/ADR leukemia = tested on: P388/ADR leukemia
P388 leukemia = tested on: P388 leukemia
SN12K1 renal = tested on: SN12K1 renal
RXF-631 renal = tested on: RXF-631 renal

Compound | TGI (LXFL 529 NSCLC) | TGI (XF 498 CNS) | TGI (DLD-1 colon) | TGI (DMS 273 small cell lung) | TGI (HOP-18 NSCLC) | TGI (P388/ADR leukemia) | TGI (P388 leukemia) | TGI (SN12K1 renal) | TGI (RXF-631 renal)
O=c1[nH]c(=O)n(C2OC(COP(=O)(O)OP(=O)(O)O)C(O)C2O)cc1F (stereo unspecified) | > 50 µM | > 50 µM | > 50 µM | > 50 µM | > 50 µM |  |  |  | 
CC1=CC(O)C(O)C2(C)C1CC1OC(=O)C(O)C3C(C)C(O)C4(O)OCC13C42 (stereo unspecified) |  | 311 µM | > 625 µM | > 567 µM | > 625 µM | > 625 µM | > 625 µM | 150 µM | 
CC1(O)C=CC2CCC1C2O (stereo unspecified) | > 100 µM | > 100 µM | > 100 µM | > 100 µM | > 100 µM |  |  |  | 
C/C(=N\NC(N)=O)C(CN1CCCCC1)C(c1ccccc1)c1c(O)c2ccccc2oc1=O (stereo unspecified) | > 100 µM |  | > 100 µM | > 100 µM | > 100 µM |  |  |  | > 100 µM
NC(Cc1cc(I)c(O)c(I)c1)C(=O)O (stereo unspecified) |  | > 500 µM | > 500 µM | > 322 µM | > 500 µM | > 364 µM | 160 µM | 246 µM | 
COc1cccc(NC(=O)CSc2nnc(-c3ccc(N=Cc4ccc(Cl)cc4)cc3)o2)c1 | 50.2 µM | 37.7 µM |  |  | > 100 µM |  |  |  | 
Cc1ccc(C(=O)N(C(C)C)C(C)C)cc1N=NN(C)C | > 100 µM |  | > 100 µM | > 100 µM |  |  |  |  | 
Cc1csc2c1C(=O)c1ccsc1C2=O | 13.3 µM | 5.06 µM | 10.6 µM | 4.45 µM | 3.73 µM |  |  |  | 
O=S1(=O)NNC(=NCc2ccc(Cl)cc2)c2ccccc21 | > 100 µM | > 100 µM | > 100 µM | > 100 µM |  |  |  |  | > 100 µM
CN1CCn2c(Br)ccc2C1=O | > 100 µM | > 100 µM |  | > 100 µM |  |  |  |  | 
CCCCc1c2c(nc3c1CCc1cc4c(nc1-3)-c1nc3c(c(CCCC)c1CC4)CCC/C3=C\c1ccccc1)/C(=C/c1ccccc1)CCC2 | > 100 µM | 66.6 µM | > 100 µM | > 100 µM |  |  |  |  | 
COc1cc(C2C3=C(CCC3=O)Oc3cc4c(cc32)OCO4)cc(OC)c1OC (stereo unspecified) |  | 0.736 µM |  | > 100 µM | > 100 µM |  |  |  | 78.3 µM
